Patent US20110039935A1, “USE OF PHARMACOLOGICALLY ACTIVE CHEMICAL COMPOUNDS” (ENTRESS AB, priority 2007, published 2011)
“Also recorded” adds a separate entry of the source.

Legend:
[1] = tested on: abdominal aorta sections of bypass and sham operated rats; test: Elastic recoil of aorta sections from bypass- and sham-operated rats given AKG; type: in vivo, Sprague Dawley rats
Experimental: A dissected portion of the abdominal aorta, prior to the right- and left common iliac arteries, was carefully cleaned to remove adhering tissues.
Force was measured using a FTO3 force displacement transducer (Grass Instrument, West Warwick, R.I.) connected to a home-built bridge amplifier which was interfaced with a 8S PowerLab A/D Converter (ADInstruments, Chalgrove, Oxfordshire, UK).
The recorded signal was adjusted to zero for un-tensioned aorta sections with the aid of an offset dial mounted on the pre-amplifier unit. Each aorta section was then exposed to approx. 5 step-wise increases in tension (each step being approx. 0.09 N), until a final maximal tension of 0.49 N (measured using the FT03 Grass Force transducer) was achieved. […] Aorta sections were subsequently removed and weighed.
(§1) LaPlace's equation assumes the tension (T) in the wall of a hollow cylinder is directly proportional to the cylinders radius (r) and the pressure (p) across the wall, caused by the flow inside the cylinder, such that T=p×r. If one assumes that the tension in the wall of the aorta sections is equivalent to that recorded by the force transducer as the result of a manual stretch, then the pressure that would have given rise to such an increase in tension can be calculated using LaPlace's equation and the measured radius of each aorta section.
Data are presented as mean±SE.

[2] = tested on: abdominal aorta sections of elderly mice; conditions: for elasticity of aorta sections (elastic recoil), first series of stretches: control 3.3×10^−5; for decrease in elastic recoil, second versus first series: repeated stretching protocol, control approximately 90%
Experimental: This time, experimental subjects that were in need of increased artery elasticity for a more general reason, namely advanced age, were studied.
Female NMRI mice, aged 50 weeks at the start of the trial, were housed at the animal facilities of the Department of Cell & Organism Biology, Lund University, Sweden. The animals were raised under the same conditions with a 12/12 hour light-dark cycle. Mice were fed rodent pellets ad libitum (Altromin no. 1314 Spezialfutterwerke, Lage, Germany) and given free access to drinking water. […] Mice allocated to Group 3 were only fed rodent pellets and were considered to be the Control group (n=6). The level of AKG fed as a supplement to the diet represented 2% of the voluntary feed intake of the mice, which was approx. 10-15% of body weight per day.
The mice were anaesthetized by exposure to 95% CO2 and killed by cervical dislocation. A dissected portion of the abdominal aorta, prior to the right- and left common iliac arteries, was carefully cleaned to remove adhering tissues. The aorta was cut into approx. 4.5 mm pieces with a diameter at rest of approx. 1 mm, and each piece was then securely attached at one end to a force transducer and at the other to a metal pin on a mounting block, as described in part (Harrison et al. Reprod Fertil Dev. 1997; 9(7):731-40, Harrison and Flatman Am J Physiol. 1999 December; 277(6 Pt 2):R1646-53).
Aorta sections were immersed into oxygenated and thermostatically controlled chambers (37° C.), having an internal depth and diameter of 5.5 and 3.2 cm, respectively, and holding 44 ml of phosphate buffered saline (0.15 M PBS, pH 7.4) comprising in mM; NaCl 136.91, KCl 2.68, Na2HPO4 8.08 and NaH2PO4 1.66. Force was measured using a FTO3 force displacement transducer (Grass Instrument, West Warwick, R.I.) connected to a home-built bridge amplifier which was interfaced with a 8S PowerLab A/D Converter (ADInstruments, Chalgrove, Oxfordshire, UK). […] The PowerLab 8S A/D converter was connected to an iBook G4 running Chart v.5.4 Software (AD Instruments, Australia). The data recording was at a sampling speed of 40.000 data samples per second (40 KHz) and the input impedance of the amplifier was 200 MΩ differential
Aorta sections were suspended vertically, and in duplicate. The recorded signal was adjusted to zero for un-tensioned aorta sections with the aid of an offset dial mounted on the pre-amplifier unit. Each aorta section was then exposed to approx. 5 step-wise increases in tension (each step being approx. 0.09 N), until a final maximal tension of 0.49 N (measured using the FT03 Grass Force transducer) was achieved. […] The aorta sections were then allowed to relax totally before being exposed to repeat step-wise increases in tension a further two more times, in close succession. Aorta sections were subsequently removed and weighed.
This fall in the recording trace was measured over time using the Average Slope calculation available as part of Chart v.5.4 Software (AD Instruments, Australia).
as §1

[3] = tested on: excised aorta sections of elderly mice; test: Robustness of aorta sections to stretch (successful stretches without rupture); type: in vivo, NMRI mice; conditions: for number of successful stretches without rupture, First Replicate / number of successful stretches without rupture, Second Replicate: 0.49 N max. tension stepwise, control 4 out of 6; for successful stretches without rupture, Mean (%): mean of two replicates, control 66.7
Experimental: Female NMRI mice, aged 50 weeks at the start of the trial, were housed at the animal facilities of the Department of Cell & Organism Biology, Lund University, Sweden. The animals were raised under the same conditions with a 12/12 hour light-dark cycle. Mice were fed rodent pellets ad libitum (Altromin no. 1314 Spezialfutterwerke, Lage, Germany) and given free access to drinking water. […] Mice in Group 1 were fed rodent pellets plus (2% w/v) Na2−AKG 2H2O (n=6), whilst mice in Group 2 were fed rodent pellets plus (2% w/v) Ca−AKG H2O (n=6). Mice allocated to Group 3 were only fed rodent pellets and were considered to be the Control group (n=6). The level of AKG fed as a supplement to the diet represented 2% of the voluntary feed intake of the mice, which was approx. 10-15% of body weight per day.
Aorta sections were suspended vertically, and in duplicate. The recorded signal was adjusted to zero for un-tensioned aorta sections with the aid of an offset dial mounted on the pre-amplifier unit. Each aorta section was then exposed to approx. 5 step-wise increases in tension (each step being approx. 0.09 N), until a final maximal tension of 0.49 N (measured using the FT03 Grass Force transducer) was achieved. This final level of tension was by no means close to the physiological maximum force recorded in aorta sections. The aorta sections were then allowed to relax totally before being exposed to repeat step-wise increases in tension a further two more times, in close succession. Aorta sections were subsequently removed and weighed.
In all the arteries studied, the initial stretch series (e.g. application of tension followed by relaxation) led to a decrease in elasticity with subsequent applications of tension. This effect may be compared to the sort of damage that would be expected to arise with a sudden increase in blood pressure (see FIG. 5).

[4] = elderly mice fed 2% w/v in pellets for 182 days, n=6, mean±SE

Compound	effect of AKG-intake on arterial elasticity in bypass-operated rats ([1]; B+AKG versus B−AKG, P=0.047)	effect of AKG-intake on aorta elasticity in sham-operated control rats ([1]; S+AKG versus S−AKG, P=0.44)	elasticity of aorta sections (elastic recoil), first series of stretches [2, 4]	effect compared to Na−AKG group ([2]; elderly mice, arterial elasticity)	effect on arterial elasticity compared with the control mice ([2]; elderly mice, first stretch series (FIG. 4))	decrease in elastic recoil, second versus first series [2]	number of successful stretches without rupture, First Replicate [3]	number of successful stretches without rupture, Second Replicate [3]	successful stretches without rupture, Mean (%) [3]	elasticity of aorta sections (elastic recoil), second series of stretches ([2]; elderly mice fed 2% w/v in pellets for 182 days, n=6, mean±SE, control 3.4×10^−6)	uptake after enteral administration
O=C(O)CCC(=O)C(=O)O [AKG, alpha-ketoglutaric acid]	significant effect; also recorded: positive effect	no effect	–	–	–	–	–	–	–	–	–
O=C([O-])CCC(=O)C(=O)[O-].[Ca+2] [Ca−AKG, calcium alpha-ketoglutarate]	–	–	6.4×10^−5±2.7×10^−6 N ms^−1 mg^−1 wet wt	better effects	significant effect	94%	4 out of 6	5 out of 6	75.0%	–	–
O=C([O-])CCC(=O)C(=O)[O-].[Na+].[Na+] [Na−AKG, sodium alpha-ketoglutarate]	–	–	4.3×10^−5±1.6×10^−6 N ms^−1 mg^−1 wet wt	–	–	91%	4 out of 6	5 out of 6	75.0%	3.7×10^−6±1.1×10^−6 N ms^−1 mg^−1 wet wt	faster uptake after enteral administration with higher peak blood levels
